Consider 20 compounds from US20250129092A1, “COMPOUNDS USEFUL IN MODULATION OF AHR SIGNALLING” (JAGUAHR THERAPEUTICS PTE LTD, priority 2021, published 2025).

For assay [1], the target named is T1, AhR (Homo sapiens, UniProt P35869).
T1 sequence (P35869 11-848): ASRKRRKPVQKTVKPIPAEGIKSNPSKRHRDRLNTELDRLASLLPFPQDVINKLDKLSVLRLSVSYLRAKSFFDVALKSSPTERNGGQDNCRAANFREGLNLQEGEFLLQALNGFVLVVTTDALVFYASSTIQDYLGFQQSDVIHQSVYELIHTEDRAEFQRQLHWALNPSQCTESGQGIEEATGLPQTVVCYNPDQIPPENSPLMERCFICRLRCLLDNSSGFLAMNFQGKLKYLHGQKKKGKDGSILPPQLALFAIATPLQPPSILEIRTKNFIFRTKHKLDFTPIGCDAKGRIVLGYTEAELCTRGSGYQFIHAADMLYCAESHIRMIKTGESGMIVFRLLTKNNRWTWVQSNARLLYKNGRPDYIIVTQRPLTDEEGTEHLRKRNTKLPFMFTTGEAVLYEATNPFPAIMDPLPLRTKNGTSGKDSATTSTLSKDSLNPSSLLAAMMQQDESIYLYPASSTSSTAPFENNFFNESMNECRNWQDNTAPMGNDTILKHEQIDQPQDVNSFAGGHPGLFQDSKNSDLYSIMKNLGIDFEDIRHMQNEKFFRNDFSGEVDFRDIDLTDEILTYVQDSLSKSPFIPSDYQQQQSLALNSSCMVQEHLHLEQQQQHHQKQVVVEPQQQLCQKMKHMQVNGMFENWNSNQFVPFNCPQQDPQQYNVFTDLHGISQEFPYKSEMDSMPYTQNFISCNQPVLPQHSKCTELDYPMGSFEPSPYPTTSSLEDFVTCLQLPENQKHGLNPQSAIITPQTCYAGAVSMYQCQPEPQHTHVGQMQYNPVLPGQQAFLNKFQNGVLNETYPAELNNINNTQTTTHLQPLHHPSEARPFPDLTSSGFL
The experiment in a line: AhR antagonism in U937 cells (Promega P450-Glo assay). It is filed as cell-based. Also on record: endogenous in cells; host or cells: U937 cells. The note with it: CYP1A1 activity readout (Luciferin-CEE), head names VAF347, average, read-out: U937 Antagonist pIC50-VAF347: av. pIC50 (converted). Here is the method:
In Vitro Assay 1: AhR Antagonism in U937 Cells (Promega P450-Glo™ Assay)
AhR antagonism was assessed in LJ937 cells (myeloid lineage cell line derived from a human histiocytic lymphoma). Ligand binds the AhR in the cytoplasm, and the AhR-ligand complex translocates to the nucleus and forms a heterodimer with AhR nuclear translocator (Arnt). This complex binds the xenobiotic response element (XRE) in the 5′ upstream region of the CYP1A1 promoter, enhancing CYP1A1 expression. CYP1A1 activity is subsequently determined by assessing the conversion of Luciferin-CEE to luciferin, which in turn reacts with luciferase to produce light. The amount of light produced is directly proportional to cytochrome P450 activity. U937 cells in Ultraculture serum free media (Lonza) were plated at 100,000 cells per well in a round bottom 96 well tissue culture plate. […] The plates were then placed in an incubator at 37° C., ≥85% humidity, 5% CO2 for 24 hrs. After aspiration of the supernatant the CYP1A1 substrate Luciferin-CEE ([Final] 83 μM) was added and incubated for 3 hrs before the reaction was stopped by adding luciferin detection reagent and luminescence was read after 20 minutes.

For assay [2], the target named is T1, AhR. Briefly: AhR antagonism in human PBMCs - inhibition of IL-22 release. The settings on record: human PBMCs activated with CD3/CD28 agonist mixture, 72 hrs, IL-22 ELISA; average; read-out: hPBMC Inhibition of CD3/CD28 induced IL-22 release: av. pIC50 (converted). In kind it is cell-based. Also on record: endogenous in cells. The text has this: In Vitro Assay 3: AhR Antagonism in Human Peripheral Blood Mononuclear Cells (PBMCs)-Inhibition of Interleukin-22 (IL-22) Release.
PBMCs were isolated from human peripheral blood using Lymphoprep™ and diluted to 1×10^6 cells per ml in RPMI media containing […] foetal bovine serum, 1% penicillin-streptomycin and 1% non essential amino acids. PBMCs were subsequently activated with 1p1 per 100,000 cells of a CD3/CD28 agonist mixture (human T Cell TransAct™ (Miltenyi Biotec)) and then plated at 100,000 cells per well in a round bottom 96 well tissue culture plate. One hour after stimulation seven concentrations of each test compound or vehicle (final [DMSO] 0.2%) were added. The plates were then placed in an incubator at 37° C., ≥85% humidity, 5% […] for 72 hrs before the media was removed and stored at −20° C. until cytokine analysis. IL-22 was measured using human IL-22 DuoSet ELISA (R&D systems) according to the manufacturer's instructions.

`O=c1[nH]cccc1-c1nc2c(c(NCCc3c[nH]c4ccccc34)n1)OCCN2` [Example 17, 3-[4-[2-(1H-indol-3-yl)ethylamino]-7,8-dihydro-6H-pyrimido[5,4-b][1,4]oxazin-2-yl]-1H-pyridin-2-one]: the IC50 is 3.8 nM at AhR [1] and 1.66 nM on AhR [2].
As for `Cc1ncc(-c2nc3c(c(NC4CCc5[nH]c6cccnc6c5C4)n2)OCCN3)s1` (stereo not shown) [Example 34, 2-(2-methylthiazol-5-yl)-N-(6,7,8,9-tetrahydro-5H-pyrido[3,2-b]indol-8-yl)-7,8-dihydro-6H-pyrimido[5,4-b][1,4]oxazin-4-amine], the figures for the IC50 at AhR [1] and at AhR [2] were > 759 nM and > 2000 nM, respectively.
As to `Cc1ncc(-c2nc3c(c(NC4Cc5cccc6[nH]cc(c56)C4)n2)OCCN3)s1` (stereo not shown) [Example 14, 2-(2-methylthiazol-5-yl)-N-(1,3,4,5-tetrahydrobenzo[cd]indol-4-yl)-7,8-dihydro-6H-pyrimido[5,4-b][1,4]oxazin-4-amine], the results for the IC50 at AhR [1] and at AhR [2] were 74.1 nM and 100 nM, respectively.
Turning to `CC(C)N1CCOc2c(NCCc3c[nH]c4ccccc34)nc(-c3cncc(F)c3)nc21` [Example 6, 2-(5-fluoro-3-pyridyl)-N-[2-(1H-indol-3-yl)ethyl]-8-isopropyl-6,7-dihydropyrimido[5,4-b][1,4]oxazin-4-amine], the IC50 is 7.76 nM at AhR [1] and 1.35 nM on AhR [2].
As for `COC[C@@H]1COc2c(NCCc3c[nH]c4ccccc34)nc(-c3cnc(C)s3)nc2N1` [Example 59, (7R)—N-[2-(1H-indol-3-yl)ethyl]-7-(methoxymethyl)-2-(2-methylthiazol-5-yl)-7,8-dihydro-6H-pyrimido[5,4-b][1,4]oxazin-4-amine], the IC50 was 3.8 nM on AhR [1] and 3.24 nM at AhR [2].
For `Cc1ncc(-c2nc3c(c(OCCc4c[nH]c5cc(F)ccc45)n2)OCCN3)s1` [Example 24, 4-[2-(6-fluoro-1H-indol-3-yl)ethoxy]-2-(2-methylthiazol-5-yl)-7,8-dihydro-6H-pyrimido[5,4-b][1,4]oxazine], the results for the IC50 on AhR [1] and at AhR [2] were 2.63 nM and 2.88 nM, respectively.
Turning to `CCc1nc(C)c(-c2nc3c(c(NCCc4c[nH]c5ccccc45)n2)OCCN3)s1` [Example 12, 2-(2-ethyl-4-methyl-thiazol-5-yl)-N-[2-(1H-indol-3-yl)ethyl]-7,8-dihydro-6H-pyrimido[5,4-b][1,4]oxazin-4-amine], the IC50 at AhR [1] is 89.1 nM; on AhR [2], 141 nM.
For `Fc1ccc(-c2nc3c(c(NCCc4c[nH]c5ccccc45)n2)OCCN3)cc1` [Example 2, 2-(4-fluorophenyl)-N-[2-(1H-indol-3-yl)ethyl]-7,8-dihydro-6H-pyrimido[5,4-b][1,4]oxazin-4-amine], the results for the IC50 at AhR [1] and on AhR [2] were 25.1 nM and 56.2 nM, respectively.
Turning to `COC[C@H]1COc2c(NCCc3c[nH]c4ccccc34)nc(-c3ccc[nH]c3=O)nc2N1` [Example 45, (S)-3-(4-((2-(1H-indol-3-yl)ethyl)amino)-7-(methoxymethyl)-7,8-dihydro-6H-pyrimido[5,4-b][1,4]oxazin-2-yl)pyridin-2(1H)-one], the IC50 was 3.8 nM at AhR [1] and < 1.02 nM at AhR [2].
`Fc1cccc(-c2nc3c(c(NCCc4c[nH]c5ccccc45)n2)OCCN3)c1` [Example 50, 2-(3-fluorophenyl)-N-[2-(1H-indol-3-yl)ethyl]-7,8-dihydro-6H-pyrimido[5,4-b][1,4]oxazin-4-amine]: the results for the IC50 at AhR [1] and on AhR [2] were 5.5 nM and 22.4 nM, respectively.
Take `CN1CCOc2c(NCCc3c[nH]c4ccccc34)nc(-c3ccc[nH]c3=O)nc21` [Example 44, 3-(4-((2-(1H-indol-3-yl)ethyl)amino)-8-methyl-7,8-dihydro-6H-pyrimido[5,4-b][1,4]oxazin-2-yl)pyridin-2 (1H)-one]: the figures for the IC50 on AhR [1] and on AhR [2] were 10.2 nM and < 1.55 nM, respectively.
The like results for `O=c1[nH]cccc1-c1nc2c(c(NCCc3c[nH]c4cc(F)ccc34)n1)OCCN2` [Example 21, 3-[4-[2-(6-fluoro-1H-indol-3-yl)ethylamino]-7,8-dihydro-6H-pyrimido[5,4-b][1,4]oxazin-2-yl]-1H-pyridin-2-one] were, in that order, 2.75 nM and 1.45 nM.
The like results for `COC[C@@H]1COc2c(NCCc3c[nH]c4ccccc34)nc(-c3cc(F)cc(F)c3)nc2N1` [Example 49, (7R)-2-(3,5-difluorophenyl)-N-[2-(1H-indol-3-yl)ethyl]-7-(methoxymethyl)-7,8-dihydro-6H-pyrimido[5,4-b][1,4]oxazin-4-amine] were, in that order, 3.39 nM and 6.92 nM.
Take `Cc1ncc(-c2nc(NCCc3c[nH]c4ccccc34)c3c(n2)N[C@H](CO)CO3)s1` [Example 60, [(7R)-4-[2-(1H-indol-3-yl)ethylamino]-2-(2-methylthiazol-5-yl)-7,8-dihydro-6H-pyrimido[5,4-b][1,4]oxazin-7-yl]methanol]: the IC50 is 4.27 nM on AhR [1] and 7.41 nM at AhR [2].
Consider `COC[C@@H]1COc2c(nc(-c3cnc(C)s3)nc2N[C@@H]2CCc3[nH]c4ccccc4c3C2)N1` [Example 53, (7R)-7-(methoxymethyl)-2-(2-methylthiazol-5-yl)-N-[(3R)-2,3,4,9-tetrahydro-1H-carbazol-3-yl]-7,8-dihydro-6H-pyrimido[5,4-b][1,4]oxazin-4-amine], for which the IC50 on AhR [1] was 81.3 nM; at AhR [2], 759 nM.
In the case of `COC[C@@H]1COc2c(NCCc3c[nH]c4ccccc34)nc(-c3cccc(F)c3)nc2N1` [Example 57, (7R)-2-(3-fluorophenyl)-N-[2-(1H-indol-3-yl)ethyl]-7-(methoxymethyl)-7,8-dihydro-6H-pyrimido[5,4-b][1,4]oxazin-4-amine], the IC50 at AhR [1] is 3.09 nM; at AhR [2] it was 2 nM.
With `Cc1ncc(-c2nc(N[C@@H]3CCc4[nH]c5ccccc5c4C3)c3c(n2)N(CCN(C)C)[C@H](CO)CO3)s1` [Example 36, [(7R)-8-[2-(dimethylamino)ethyl]-2-(2-methylthiazol-5-yl)-4-[[(3R)-2,3,4,9-tetrahydro-1H-carbazol-3-yl]amino]-6,7-dihydropyrimido[5,4-b][1,4]oxazin-7-yl]methanol], the IC50 at AhR [1] was > 1000 nM; at AhR [2] it was 1070 nM.
Consider `Cc1ncc(-c2nc3c(c(N(CCO)CCc4c[nH]c5ccccc45)n2)OCCN3)s1` [Example 11, 2-[2-(1H-indol-3-yl)ethyl-[2-(2-methylthiazol-5-yl)-7,8-dihydro-6H-pyrimido[5,4-b][1,4]oxazin-4-yl]amino]ethanol], for which the figures for the IC50 at AhR [1] and on AhR [2] were 91.2 nM and 525 nM, respectively.
Turning to `Cc1ncc(-c2nc3c(c(N[C@@H]4CCc5[nH]c6ccccc6c5C4)n2)OC[C@@H](CO)N3)s1` [Example 54, [(7R)-2-(2-methylthiazol-5-yl)-4-[[(3R)-2,3,4,9-tetrahydro-1H-carbazol-3-yl]amino]-7,8-dihydro-6H-pyrimido[5,4-b][1,4]oxazin-7-yl]methanol], the IC50 on AhR [1] was 229 nM; on AhR [2], 501 nM.
Consider `COC[C@@H]1COc2c(nc(-c3ccc[nH]c3=O)nc2OCCc2c[nH]c3ccccc23)N1` [Example 48, 3-[(7R)-4-[2-(1H-indol-3-yl)ethoxy]-7-(methoxymethyl)-7,8-dihydro-6H-pyrimido[5,4-b][1,4]oxazin-2-yl]-1H-pyridin-2-one], for which the figures for the IC50 at AhR [1] and at AhR [2] were 4.37 nM and 1.62 nM, respectively.
